# Test system: patients with chronic constipation
# Assay: Clinical trial, secondary efficacy RESP12: increase of 1 or more CSBM/week over baseline after 12 weeks of treatment, by subgroup and genotype
# Format: in vivo, human
# Details: for Odds Ratio: 6-mg bid vs placebo; for % Responders T6 / Odds Ratio (T6 v P) / % Responders: 6-mg bid
# Experimental: Introduction. A clinical trial was performed to evaluate the efficacy of tegaserod (Zelmac®/Zelnorm™) at 6 mg bid (12 mg/day) or 2 mg bid (4 mg/day) vs. placebo by measuring the number of complete spontaneous bowel movements (CSBM) during the first 4 weeks of treatment. Secondary objectives included evaluating the number of CSBM during the entire 12-week treatment period, bowel habits, laxative use, and safety and tolerability issues. The clinical trial design consisted of a 2-week baseline period without medication, a 12-week, randomized, double-blind, placebo-controlled treatment period, and a 4-week withdrawal period without study medication. As part of the clinical trial, DNA was collected from patients at screening for pharmacogenetic analysis to evaluate genetic polymorphisms relating to drug targets and disease aetiology.
# Clinical assessments. […] The primary efficacy endpoint evaluated was the increase of 1 or more CSBM/week over baseline after 4 weeks of treatment. A secondary endpoint evaluated in this genotyping study was RESP12, the increase of 1 of more CSBM/week over baseline after 12 weeks of treatment. Patients were classified as responders if they met these criteria and had completed at least 7 days of treatment. Additional secondary efficacy assessments were evaluated based on the weekly diary assessments, such as bothersome constipation, bothersome abdominal pain, and satisfaction with bowel habits at the end of the 12-week treatment period (using the baseline value as a co-variant for analysis).
# Statistical analysis. Statistical analysis was performed using SAS version 8.2 (The SAS Institute, Cary, N.C., USA). Analysis methods included Fisher's Exact tests, analysis of Covariance (ANCOVA), logistic regression, and Mantel-Haenzel tests to determine odds ratios and 95% confidence intervals, with significance established at p<0.05. Calculation of linkage disequilibrium was performed using the GOLD (graphical overview of linkage disequilibrium) method described by Abecasis & Cookson, Bioinformatics 16: 182-3 (2000).
# Secondary efficacy endpoint: response after 12 weeks of treatment. The same comparison as above was performed using the secondary efficacy endpoint of a mean increase of 1 or more CSBM/week over baseline after 12 weeks of treatment. The results for the 12 individual “high responder” SNPs are presented in TABLE 9 and the results using the comparison of individuals with or without at least one of the twelve SNPs is presented in TABLE 10.
# [1] = All Caucasians (ITT, >=7 days), Age <65, M + F
# [2] = All Caucasians (ITT, >=7 days), Age >=65, M + F
# [3] = All Caucasians (ITT, >=7 days), Age All, Female
# [4] = All Caucasians (ITT, >=7 days), Age All, M + F
# [5] = All Caucasians (ITT, >=7 days), Age All, Male
# [6] = All genotyped (ITT, >=7 days), Age <65, M + F
# [7] = All genotyped (ITT, >=7 days), Age >=65, M + F
# [8] = All genotyped (ITT, >=7 days), Age All, Female
# [9] = All genotyped (ITT, >=7 days), Age All, M + F
# [10] = All genotyped (ITT, >=7 days), Age All, Male
# [11] = All patients (ITT, >=7 days), Age <65, M + F
# [12] = All patients (ITT, >=7 days), Age >=65, M + F
# [13] = All patients (ITT, >=7 days), Age All, Female
# [14] = All patients (ITT, >=7 days), Age All, M + F
# [15] = All patients (ITT, >=7 days), Age All, Male
# [16] = Caucasians genotyped (ITT, >=7 days), Age <65, M + F
# [17] = Caucasians genotyped (ITT, >=7 days), Age >=65, M + F
# [18] = Caucasians genotyped (ITT, >=7 days), Age All, Female
# [19] = Caucasians genotyped (ITT, >=7 days), Age All, M + F
# [20] = Caucasians genotyped (ITT, >=7 days), Age All, Male
# [21] = Female (All ages), 0-12 of the 12 SNPs
# [22] = Female (All ages), 0 of the 12 SNPs
# [23] = Female (All ages), 1-12 of the 12 SNPs
smiles,measurement,setting,value
"[H]/N=C(/NCCCCC)N/N=C/c1c[nH]c2ccc(OC)cc12 [tegaserod, Tegaserod]",Odds Ratio,[1],2.8
same,Odds Ratio,[2],1.4
same,Odds Ratio,[3],2.5
same,Odds Ratio,[4],2.5
same,Odds Ratio,[5],2.5
same,Odds Ratio,[6],2.6
same,Odds Ratio,[7],2.6
same,Odds Ratio,[8],2.5
same,Odds Ratio,[9],2.6
same,Odds Ratio,[10],2.9
same,Odds Ratio,[11],2.3
same,Odds Ratio,[12],1.6
same,Odds Ratio,[13],2.2
same,Odds Ratio,[14],2.3
same,Odds Ratio,[15],2.6
same,Odds Ratio,[16],3.0
same,Odds Ratio,[17],2.3
same,Odds Ratio,[18],2.8
same,Odds Ratio,[19],2.8
same,Odds Ratio,[20],3.0
same,% Responders T6,0 of 14 SNPs,39%
same,Odds Ratio (T6 v P),0 of 14 SNPs,1.2
same,% Responders T6,>=1 of 14 SNPs,54%
same,Odds Ratio (T6 v P),>=1 of 14 SNPs,4.4
same,% Responders T6,AQP3 (1838) genotype CC,47%
same,Odds Ratio (T6 v P),AQP3 (1838) genotype CC,2.7
same,% Responders T6,AQP3 (1838) genotype CG,49%
same,Odds Ratio (T6 v P),AQP3 (1838) genotype CG,2.5
same,% Responders T6,AQP3 (1838) genotype GG,64%
same,Odds Ratio (T6 v P),AQP3 (1838) genotype GG,8.1
same,% Responders,[1],48%
same,% Responders,[2],38%
same,% Responders,[3],47%
same,% Responders,[4],47%
same,% Responders,[5],45%
same,% Responders,[6],47%
same,% Responders,[7],56%
same,% Responders,[8],47%
same,% Responders,[9],47%
same,% Responders,[10],52%
same,% Responders,[11],46%
same,% Responders,[12],40%
same,% Responders,[13],46%
same,% Responders,[14],46%
same,% Responders,[15],43%
same,% Responders,[16],49%
same,% Responders,[17],53%
same,% Responders,[18],48%
same,% Responders,[19],49%
same,% Responders,[20],57%
same,% Responders T6,[21],48%
same,Odds Ratio (T6 v P),[21],2.8
same,% Responders T6,[22],36%
same,Odds Ratio (T6 v P),[22],1.4
same,% Responders T6,[23],61%
same,Odds Ratio (T6 v P),[23],5.5
same,% Responders T6,HTR3B (3755) genotype AA,49%
same,Odds Ratio (T6 v P),HTR3B (3755) genotype AA,3.0
same,% Responders T6,HTR3B (3755) genotype AC,47%
same,Odds Ratio (T6 v P),HTR3B (3755) genotype AC,2.3
same,% Responders T6,HTR3B (3755) genotype CC,67%
same,Odds Ratio (T6 v P),HTR3B (3755) genotype CC,5.1
same,% Responders T6,HTR4 (1746) genotype CC,44%
same,Odds Ratio (T6 v P),HTR4 (1746) genotype CC,3.1
same,% Responders T6,HTR4 (1746) genotype CT,49%
same,Odds Ratio (T6 v P),HTR4 (1746) genotype CT,2.6
same,% Responders T6,HTR4 (1746) genotype TT,70%
same,Odds Ratio (T6 v P),HTR4 (1746) genotype TT,3.2
same,% Responders T6,HTR4 (3743) genotype AA,48%
same,Odds Ratio (T6 v P),HTR4 (3743) genotype AA,3.7
same,% Responders T6,HTR4 (3743) genotype AC,52%
same,Odds Ratio (T6 v P),HTR4 (3743) genotype AC,4.7
same,% Responders T6,HTR4 (3743) genotype CC,78%
same,Odds Ratio (T6 v P),HTR4 (3743) genotype CC,8.2
same,% Responders T6,HTR4 (3747) genotype AA,41%
same,Odds Ratio (T6 v P),HTR4 (3747) genotype AA,2.7
same,% Responders T6,HTR4 (3747) genotype AT,54%
same,Odds Ratio (T6 v P),HTR4 (3747) genotype AT,3.1
same,% Responders T6,HTR4 (3747) genotype TT,65%
same,Odds Ratio (T6 v P),HTR4 (3747) genotype TT,3.0
same,% Responders T6,HTR4 (3753) genotype CC,45%
